Reference: patent US20100310488A1, “SELECTING/IDENTIFYING AND ADMINISTERING ACTIVE AGENTS USEFUL FOR MODIFYING THE SHAPE OF KERATIN/HAIR FIBERS” (L'OREAL, priority 2007, published 2010)

System: fibroblasts (dermal papilla, connective sheath, dermal)
Experiment: Assaying of sulfated glycosaminoglycans in fibroblast culture (Blyscan)
Format: cell-based, human
Details: 7 days
Protocol: The fibroblasts are cultured in DMEM medium, 10% foetal calf serum (Gibco, Invitrogen), 1 mM MEM pyruvate (Gibco, Invitrogen) and 25 units/ml of penicillin-streptomycin (Gibco, Invitrogen). The dermal papilla fibroblast (P6), connective sheath fibroblast (P6) and dermal fibroblast are then counted using a Coulter Counter Z2 (Beckman Coulter inc., Fullerton, USA) and seeded at 2×10^5 cells per well in a 12-well plate, with the wells containing 1.5 ml of medium alone, which is the “control” condition, or being treated with 3 mM of 1,5-anhydro-6,8-dideoxy-L-glucooctitol. After 7 days, the supernatant is recovered and stored at −80° C. until the GAGs are assayed. […]
The proteins present in the lysate are assayed using the Dc Protein assay kit (Biorad). The amount of glycosaminoglycans is measured in the supernatant and the lysate.
The glycosaminoglycans are assayed using the Blyscan glycosaminoglycan isolation & concentration kit (Biocolor, Newtownabbey, Northern Ireland) and the Blyscan sulfated glycosaminoglycan assay kit. […] Each sample to be measured is mixed with 700 μl of the cetylpyridinium chloride solution in a 1.5 ml centrifuge tube, and then incubated on a rotary mixer thermostated at 37° C., at 250 rpm, for 2 hours. […] The absorbance of the solution at 656 nm is measured using a polystyrene semi-microcuvette on a Biomate 5 spectrometer (Thermo). […]

## CC(O)CC1OCC(O)C(O)C1O [1,5-anhydro-6,8-dideoxy-L-glucooctitol]
Relative to control (medium alone), 3 mM in method
  increase in amount of glycosaminoglycans secreted: up to 7 times
Versus control (medium alone)
  GAG synthesis by the fibroblasts: increase in GAG synthesis by the fibroblasts, proportional to the concentration
